Patent US20020165233A1, “Quinoxaline containing medicaments for post exposure prophylaxis of an HIV infection” (priority 1999, published 2002)

System: RT-SHIV
Assay: env specific cell proliferation assay
Format: in vivo, rhesus monkeys
Protocol: Nine rhesus monkeys (male, 2 years old, 2-3 kg) were seronegative for SIV, Simian T cell Leukemia Virus (STLV), B virus and Type D retroviruses. 15 mg/kg body weight of COMPOUND A was subcutaneously administered into animals twice a day (12 h interval) for 28 d. Animals were divided into three groups. All animals were intravenously administered with 100 TCID50 of RT-SHIV The first group consisted of three animals treated with COMPOUND A from 8 h post exposure for 28 d. The second group of animals was treated with COMPOUND A from 24 h post exposure for 28 d. The third group (control) received the solvent that was used to dissolve COMPOUND A (PEG400:glycerol:water=[…]) from 8 h post exposure for 28 d.
Cell Proliferation Assay:
The method used was described previously [J. Virol, 1996: 70, 678-681]. In brief, PBMC was thawed and incubated as described in the CTL assay. Triplicates of PBMC (4×10^5) cells were incubated with autologous B-LCL (1×10^5) that had been infected with SIV env-rvv or control vv and fixed with 1.5% paraformaldehyde in phosphate buffered saline (PBS). ^3H-thymidine was added to 8 h before harvesting. The incorporation of ^3H-thymidine was measured by liquid scintillation counting. The stimulation index was calculated as (mean c.p.m. of PBMC cultured with env-rvv/mean c.p.m. of PBMC cultured with control vv).

## CC[C@H]1C(=O)Nc2ccc(F)cc2N1C(=O)OC(C)C [Compound A, (3S)-ethyl-6-fluoro-4-isopropyloxycarbonyl-3,4-dihydroquinoxalin-2(1H)-one]
All treated animals versus untreated group
  proliferative response at week 40: levels higher than those of the untreated group
All treated animals, 3 weeks through 40 weeks post exposure, versus untreated
  env specific proliferative responses: Significantly higher
